Laboratory results: patent US8258160B2, “SCD1 inhibitors triazole and tetrazole compounds” (Novartis AG, priority 2006, dated 2012)

Columns and labels:
[1] = molecular target: T1, stearoyl-CoA desaturase (SCD1) (Mus musculus, UniProt P13516); experiment: SCD microsomal assay: release of 3H2O from [9,10-3H]stearoyl-CoA in mouse liver microsomes; type: biochemical; details: 15 min incubation, 25° C.
T1 construct: Reactions are started by adding 50 μL of microsomes (1.25 mg/mL); from tissue; host or cells: liver microsomes of male ICR outbred mice on a high-carbohydrate, low-fat diet
T1 sequence (P13516 1-355): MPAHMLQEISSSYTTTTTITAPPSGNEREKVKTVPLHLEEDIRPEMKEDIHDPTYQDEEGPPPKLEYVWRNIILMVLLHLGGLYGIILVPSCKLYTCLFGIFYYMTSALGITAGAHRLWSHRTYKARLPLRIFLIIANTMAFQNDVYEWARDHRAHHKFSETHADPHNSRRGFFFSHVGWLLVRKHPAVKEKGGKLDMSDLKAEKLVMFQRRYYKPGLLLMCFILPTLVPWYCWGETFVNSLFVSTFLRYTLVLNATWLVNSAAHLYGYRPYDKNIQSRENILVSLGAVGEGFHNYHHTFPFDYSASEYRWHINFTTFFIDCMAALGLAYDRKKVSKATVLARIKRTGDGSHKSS
From the text: The identification of compounds of the invention as SCD inhibitors was readily accomplished using the SCD enzyme and microsomal assay procedure described in Shanklin J. and Summerville C., Proc. Natl. Acad. Sci. USA (1991), Vol. 88, pp. 2510-2514.
The identification of compounds of the invention as SCD inhibitors was readily accomplished using the SCD microsomal assay procedure described in Shanklin J. and Summerville C., Proc. Natl. Acad. Sci. USA (1991), Vol. 88, pp. 2510-2514.
Male ICR outbread mice, on a high-carbohydrate, low fat diet, under light halothane (15% in mineral oil) anesthesia are sacrificed by exsanguination during periods of high enzyme activity. Livers are immediately rinsed with cold 0.9% NaCl solution, weighed and minced with scissors. All procedures are performed at 4° C. unless specified otherwise. Livers are homogenized in a solution (1/3 w/v) containing 0.25 M sucrose, 62 mM potassium phosphate buffer (pH 7.0), 0.15 M KCl, 15 mM N-acetylcysteine, 5 mM MgCl2, and 0.1 mM EDTA using 4 strokes of a Potter-Elvehjem tissue homogenizer. The homogenate is centrifuged at 10,400×g for 20 min to eliminate mitochondria and cellular debris. The supernatant is filtered through a 3-layer cheesecloth and centrifuged at 105,000×g for 60 min. The microsomal pellet is gently resuspended in the same homogenization solution with a small glass/teflon homogenizer and stored at −70° C. The absence of mitochondrial contamination is enzymatically assessed. The protein concentration is measured using bovine serum albumin as the standard.
Desaturase activity is measured as the release of ^3H2O from [9,10-^3H]stearoyl-CoA. Reactions per assay point conditions are as follows: 2 μL 1.5 mM stearoyl-CoA, 0.25 μL 1 mCi/mL ^3H stearoyl CoA, 10 μL 20 mM NADH, 36.75 μL 0.1 M PK buffer (K2HPO4/NaH2PO4, pH 7.2). The test compound or control solution is added in a 1 μL volume. Reactions are started by adding 50 μL of microsomes (1.25 mg/mL). The plates are mixed and after 15 min incubation on a heating block (25° C.), the reactions are stopped by the addition of 10 μL 60% PCA. An aliquot of 100 μL is then transferred to a filter plate pretreated with charcoal and the plate centrifuged at 4000 rpm for 1 min. The flow through containing the ^3H2O released by the SCD1 desaturation reaction is added to scintillation fluid and the radioactivity measured in a Packard TopCount. The data is analysed to identify the IC50 for test compounds and reference compounds. […] The activity was defined in terms of % SCD enzyme activity remaining at the desired concentration of the test compound or as the IC50 concentration. The IC50 (affinity) of the example compounds toward the stearoyl-CoA desaturase is comprised between around 20 μM and 0.0001 μM or between around 5 μM and 0.0001 μM or between around 1 μM and 0.0001 μM.

melting point	IC50 [1] [nM]	SMILES
148 to 149 °C	510	Cc1nc(-c2nnn(Cc3ccc(F)cc3)n2)sc1C(=O)NCc1cccnc1 (single isomer, unassigned) [Example 7.1, 2-(2-(4-Fluorobenzyl)-2H-tetrazol-5-yl)-4-methyl-N-(pyridin-3-ylmethyl)thiazole-5-carboxamide]
175 to 176 °C	160	Cc1nc(-c2nnnn2Cc2ccc(C(F)(F)F)cc2)sc1C(=O)NCc1cccnc1 (single isomer, unassigned) [Example 7.2, 4-Methyl-N-(pyridin-3-ylmethyl)-2-(1-(4-(trifluoromethyl)benzyl)-1H-tetrazol-5-yl)thiazole-5-carboxamide]
149 to 150 °C	310	Cc1nc(-c2nnn(CC3CC3)n2)sc1C(=O)NCc1cccnc1 (single isomer, unassigned) [Example 7.3, 2-(2-(Cyclopropylmethyl)-2H-tetrazol-5-yl)-4-methyl-N-(pyridin-3-ylmethyl)thiazole-5-carboxamide]
181 to 182 °C	20	Cc1nc(-c2cn(CCc3ccc(F)cc3)nn2)sc1C(=O)NCc1ccccc1 [Example 1, N-benzyl-2-(1-(4-fluorophenethyl)-1H-1,2,3-triazol-4-yl)-4-methylthiazole-5-carboxamide]
108 to 109 °C	30	Cc1nc(-c2cn(Cc3ccccc3)nn2)sc1C(=O)NCc1ccccc1 [Example 1.1, N-benzyl-2-(1-benzyl-1H-1,2,3-triazol-4-yl)-4-methylthiazole-5-carboxamide]
149 to 150 °C	120	Cc1nc(-c2cn(CCc3ccc(F)cc3)nn2)sc1C(=O)NCc1cccnc1 [Example 4.3, 2-(1-(4-fluorophenethyl)-1H-1,2,3-triazol-4-yl)-4-methyl-N-(pyridin-3-ylmethyl)thiazole-5-carboxamide]
139 to 141 °C	60	Cc1nc(-n2cc(Cc3ccccc3)nn2)sc1C(=O)NCc1ccccc1 [Example 10.1, N-benzyl-2-(4-benzyl-1H-1,2,3-triazol-1-yl)-4-methylthiazole-5-carboxamide]
82 to 84 °C	240	Cc1nc(-n2cc(CCC3CCCCC3)nn2)sc1C(=O)NCc1ccccc1 [Example 10.14, N-benzyl-2-(4-(2-cyclohexylethyl)-1H-1,2,3-triazol-1-yl)-4-methylthiazole-5-carboxamide]
198 to 201 °C	10	Cc1nc(-n2cc(C(=O)NCc3ccc(F)cc3)nn2)sc1C(=O)NCc1ccccc1 [Example 18.1, N-benzyl-2-(4-(4-fluorobenzylcarbamoyl)-1H-1,2,3-triazol-1-yl)-4-methylthiazole-5-carboxamide]
82 °C (dec.)	300	Cc1cc(-c2n[nH]c(Cc3ccccc3)n2)sc1C(=O)NCc1cccnc1 [Example 26, 5-(5-benzyl-1H-1,2,4-triazol-3-yl)-3-methyl-N-(pyridin-3-ylmethyl)thiophene-2-carboxamide]
103 to 104 °C	600	Cc1nc(-c2cc(Cc3ccccc3)no2)sc1C(=O)NCc1ccccc1 [Example 27, N-benzyl-2-(3-benzylisoxazol-5-yl)-4-methylthiazole-5-carboxamide]
